# Measurements reported in US6693192B1, “Hypolipidemic and antioxidant morpholine derivatives” (Elpen S.A., priority 1999, dated 2004).
# Marks after values point to notes of the source that are not given here.
# System: hyperlipidemia induced by the Triton WR 1339 in rats
# Experiment: Hypolipidemic activity: inhibition of hyperlipidemia induced by Triton WR 1339 in rats
# Format: in vivo, rat
# Settings: male Fischer rats, Triton WR 1339 200 mg/Kg i.p., dose 56 μmol/kg ip, plasma after 24 hours
# Procedure: The hypocholesterolemic and hypolipidemic activity of the synthesised compounds was performed by the inhibition of the hyperlipidemia induced by the Triton WR 1339 in rats. Triton WR 1339 as an intraperitoneal (i.p.) injection acts due to induction of HMG-CoA reductase. […] After 24 hours, blood was taken from the celiac aorta and collected to heparinised tubes.
smiles,measurement,value
CC(C)(Sc1cc(C(C)(C)C)c(O)c(C(C)(C)C)c1)Sc1cc(C(C)(C)C)c(O)c(C(C)(C)C)c1 [Probucol],"Percent decrease compared to controls, LDL (plasma Low Density Lipoprotein)",18^NS %
same,"Percent decrease compared to controls, TC (plasma Total Cholesterol)",18* %
same,"Percent decrease compared to controls, TG (plasma Triglyceride)",11^NS %
